According to patent US7262318B2, “Substituted heteroaryl- and phenylsulfamoyl compounds” (Pfizer, Inc., priority 2004, dated 2007):

System: transition cows
Test: Blood non-esterified fatty acid (NEFA) concentrations in transition cows
Format: in vivo, cow
Conditions: 0.5 mg/kg every other day from targeted day -7 pre partum and at calving, days 1–8, p<0.10, with the exception of day 5 (p=0.17)
Method: Determination of Chances in Blood Non-esterified Fatty Acid (NEFA) Concentrations and Liver Triglycerides Levels:
Compounds are administered once or several times in the transition period at dose levels predicted to be effective by comparing results of in-vitro receptor affinity tests in laboratory species and pharmacokinetic evaluations in cattle. NEFA levels are determined via standard laboratory methods, for example, using the commercial WAKO NEFA kit (Wako Chemical Co., USA, Dallas, Tex., 994-75409), and liver triglyceride content is determined using the method as described in the literature (J. K. Drackley, J. J. Veenhuizen, M. J. Richard and J. W. Young, J Dairy Sci, 1991, 74, 4254)).
All animals may be obtained from a commercial dairy farm approximately thirty days prior to anticipated calving date. […]
As soon as possible post-calving (˜30 minutes) the cow is transferred to the freestall barn for the next scheduled milking (6:00 hrs and 19:00 hrs). […] Pre and post-calving NEFA samples are analyzed using the WAKO NEFA-C test kit (#994-75409). […] Tissues are transported on ice and stored frozen at −70° F. At the conclusion of the study, samples are analysed of liver triglyceride levels using the method described by Drackley, J. K. et al. (1991, J Dairy Sci (74):4254–4264).

Cc1ccc(S(=O)(=O)Nc2ccc(-c3ccc(OC(F)(F)F)cc3)cc2)cc1C(=O)O [Example T02, 2-Methyl-5-(4′-trifluoromethoxy-biphenyl-4-ylsulfamoyl)-benzoic acid]
serum NEFA levels as compared to control: significantly lower
